In PubChem BioAssay AID192 (DTP/NCI, 2004):
Where “and” joins values, the source holds several entries; their conditions need not be identical. Equal entries are not always repeated. Inconclusive results and toxic doses are left out.

Test system: BDF1 mice, B16 melanoma ip, median survival T/C
Test: NCI In Vivo Anticancer Drug Screen. Data for tumor model B16 Melanoma (intraperitoneal) in B6D2F1 (BDF1) mice
Settings: endpoint: median survival time, higher = longer survival
In short: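 Read-out: survival or tumor size, given as treated/control ratio. Controls received vehicle only; animals bore transplantable tumors.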

[1] = dose: 25.0 mg/kg/injection, schedule: Q01DX009 (ip), vehicle: saline with Tween-80
[2] = dose: 50.0 mg/kg/injection, schedule: Q01DX009 (ip), vehicle: saline with Tween-80
[3] = dose: 100.0 mg/kg/injection, schedule: Q01DX009 (ip), vehicle: saline with Tween-80
[4] = dose: 3.12 mg/kg/injection, schedule: Q01DX009 (ip), vehicle: saline
[5] = dose: 6.25 mg/kg/injection, schedule: Q01DX009 (ip), vehicle: saline
[6] = dose: 12.5 mg/kg/injection, schedule: Q01DX009 (ip), vehicle: saline
[7] = dose: 200.0 mg/kg/injection, schedule: Q01DX009 (ip), vehicle: saline with Tween-80
[8] = dose: 50.0 mg/kg/injection, schedule: Q01DX009 (ip), vehicle: saline
[9] = dose: 100.0 mg/kg/injection, schedule: Q01DX009 (ip), vehicle: saline
[10] = dose: 200.0 mg/kg/injection, schedule: Q01DX009 (ip), vehicle: saline
[11] = dose: 100.0 mg/kg/injection, schedule: Q01DX009 (ip), vehicle: Klucel (hydroxypropylcellulose) (HPC)
[12] = dose: 400.0 mg/kg/injection, schedule: Q01DX009 (ip), vehicle: Klucel (hydroxypropylcellulose) (HPC)
[13] = dose: 6.25 mg/kg/injection, schedule: Q01DX009 (ip), vehicle: saline with Tween-80
[14] = dose: 25.0 mg/kg/injection, schedule: Q01DX009 (ip), vehicle: saline
[15] = dose: 12.5 mg/kg/injection, schedule: Q01DX009 (ip), vehicle: saline with Tween-80

Cc1ccc(NCCN(C)C)c2c(=O)c3cc(O)ccc3sc12
T/C (dose: 3.0 mg/kg/injection, schedule: Q01DX009 (ip), vehicle: Klucel (hydroxypropylcellulose) (HPC)): 119 % of control
T/C (dose: 12.0 mg/kg/injection, schedule: Q01DX009 (ip), vehicle: Klucel (hydroxypropylcellulose) (HPC)): 157 % of control
T/C (dose: 24.0 mg/kg/injection, schedule: Q01DX009 (ip), vehicle: Klucel (hydroxypropylcellulose) (HPC)): 160 % of control
T/C (dose: 25.0 mg/kg/injection, schedule: Q01DX009 (ip), vehicle: Klucel (hydroxypropylcellulose) (HPC)): 162 % of control

CC[n+]1ccc(Nc2ccc(/C=C/c3ccc4cc(Nc5cc[n+](CC)cc5)ccc4[n+]3CC)cc2)cc1
T/C (dose: 2.5 mg/kg/injection, schedule: Q01DX009 (ip), vehicle: saline): 117 % of control
T/C (dose: 5.0 mg/kg/injection, schedule: Q01DX009 (ip), vehicle: saline): 109 % of control
T/C (dose: 10.0 mg/kg/injection, schedule: Q01DX009 (ip), vehicle: saline): 86 % of control

CC(=O)OC1C(OC(C)=O)C2C(C)CC3OC(=O)C(C)C3CC2(C)C1OC(C)=O (stereo unspecified)
T/C [1]: 111 % of control
T/C [2]: 110 % of control
T/C [3]: 106 % of control

C=CCN(CC=C)CCN1CCN(CCCN2c3ccccc3Sc3ccc(C(F)(F)F)cc32)CC1
T/C [4]: 100 % of control
T/C [5]: 107 % of control
T/C [6]: 97 % of control

Oc1cccnc1CN1CCOCC1
T/C [3]: 106 % of control
T/C [7]: 109 % of control
T/C (dose: 400.0 mg/kg/injection, schedule: Q01DX009 (ip), vehicle: saline with Tween-80): 100 % of control

COC1OC(CO)C(O)C(NC(=O)N(C)N=O)C1O (stereo unspecified)
T/C [6]: 105 % of control
T/C [8]: 150 % of control
T/C [9]: 176 % of control and 195 % of control
T/C [10]: 196 % of control and 209 % of control

NCCCN=c1ccc2c3c1c(O)c1c(O)ccc(=O)c1c3[nH]n2CCNCCO
T/C (dose: 0.5 mg/kg/injection, schedule: Q01DX009 (ip), vehicle: water): 158 % of control and 197 % of control
T/C (dose: 1.0 mg/kg/injection, schedule: Q01DX009 (ip), vehicle: water): 187 % of control and 227 % of control
T/C (dose: 2.0 mg/kg/injection, schedule: Q01DX009 (ip), vehicle: water): 216 % of control and 242 % of control
T/C (dose: 4.0 mg/kg/injection, schedule: Q01DX009 (ip), vehicle: water): 216 % of control and 244 % of control
T/C (dose: 8.0 mg/kg/injection, schedule: Q01DX009 (ip), vehicle: water): 216 % of control and 338 % of control
T/C (dose: 16.0 mg/kg/injection, schedule: Q01DX009 (ip), vehicle: water): 158 % of control

CCN1C(=O)CN(CCN2CC(=O)N(c3ccccc3)C2=S)C1=S
T/C (dose: 18.75 mg/kg/injection, schedule: Q01DX009 (ip), vehicle: saline with Tween-80): 112 % of control
T/C (dose: 37.5 mg/kg/injection, schedule: Q01DX009 (ip), vehicle: saline with Tween-80): 120 % of control

COC(=O)c1cccc(C)c1O
T/C [2]: 100 % of control
T/C [3]: 112 % of control

Cc1c2ccccc2cc2cc[n+]3ccccc3c12
T/C (dose: 3.75 mg/kg/injection, schedule: Q01DX009 (ip), vehicle: Klucel (hydroxypropylcellulose) (HPC)): 98 % of control
T/C (dose: 7.5 mg/kg/injection, schedule: Q01DX009 (ip), vehicle: Klucel (hydroxypropylcellulose) (HPC)): 98 % of control
T/C (dose: 15.0 mg/kg/injection, schedule: Q01DX009 (ip), vehicle: Klucel (hydroxypropylcellulose) (HPC)): 102 % of control

Cc1cnc2c(=O)[nH]c(=O)[nH]c2n1
T/C [11]: 90 % of control
T/C [12]: 93 % of control

CCCCCCCCCCCCCCCC(=O)N(C/C=C/CN(CCCN(C)C)C(=O)CCCCCCCCCCCCCCC)CCCN(C)C
T/C (dose: 0.78 mg/kg/injection, schedule: Q01DX009 (ip), vehicle: saline with Tween-80): 86 % of control
T/C (dose: 1.56 mg/kg/injection, schedule: Q01DX009 (ip), vehicle: saline): 90 % of control
T/C (dose: 1.6 mg/kg/injection, schedule: Q01DX009 (ip), vehicle: saline with Tween-80): 104 % of control
T/C (dose: 3.13 mg/kg/injection, schedule: Q01DX009 (ip), vehicle: saline with Tween-80): 97 % of control
T/C (dose: 3.2 mg/kg/injection, schedule: Q01DX009 (ip), vehicle: saline with Tween-80): 95 % of control
T/C [13]: 95 % of control
T/C (dose: 6.3 mg/kg/injection, schedule: Q01DX009 (ip), vehicle: saline with Tween-80): 91 % of control
T/C (dose: 12.5 mg/kg/injection, schedule: Q04DX003 (ip), vehicle: saline with Tween-80): 177 % of control
T/C [1]: 158 % of control
T/C (dose: 25.0 mg/kg/injection, schedule: Q04DX003 (ip), vehicle: saline with Tween-80): 163 % of control
T/C (dose: 50.0 mg/kg/injection, schedule: Q04DX003 (ip), vehicle: saline with Tween-80): 155 % of control

CNC(Cc1ccccc1)c1ccc(OC)cc1 (stereo unspecified)
T/C (dose: 50.0 mg/kg/injection, schedule: Q01DX009 (ip), vehicle: Klucel (hydroxypropylcellulose) (HPC)): 96 % of control
T/C [11]: 96 % of control

CCOC(=O)C(C(=O)OCC)=C(C)C
T/C [14]: 123 % of control
T/C [8]: 113 % of control
T/C [9]: 110 % of control
T/C [10]: 94 % of control

CC[N](CC)[Ge]([CH2]C)[CH2]C.CC[N](CC)[Ge]([CH2]C)[CH2]C
T/C [5]: 100 % of control
T/C [6]: 99 % of control
T/C [14]: 88 % of control
T/C [8]: 86 % of control

C=C1C(=O)O[C@@H]2/C=C(/C)[C@@]3(O)C=C[C@](C)(C[C@@H](OC(=O)/C(=C\C)COC(C)=O)[C@@H]12)O3
T/C (dose: 0.03 mg/kg/injection, schedule: Q01DX009 (ip), vehicle: carboxymethylcellulose (CMC)): 99 % of control
T/C (dose: 0.12 mg/kg/injection, schedule: Q01DX009 (ip), vehicle: carboxymethylcellulose (CMC)): 102 % of control
T/C (dose: 0.25 mg/kg/injection, schedule: Q01DX009 (ip), vehicle: carboxymethylcellulose (CMC)): 97 % of control
T/C (dose: 6.0 mg/kg/injection, schedule: Q01DX009 (ip), vehicle: saline with Tween-80): 99 % of control
T/C (dose: 8.0 mg/kg/injection, schedule: Q01DX009 (ip), vehicle: saline with Tween-80): 105 % of control
T/C (dose: 12.0 mg/kg/injection, schedule: Q01DX009 (ip), vehicle: saline with Tween-80): 109 % of control
T/C (dose: 18.0 mg/kg/injection, schedule: Q01DX009 (ip), vehicle: saline with Tween-80): 92 % of control

O=C(O)C1(C(=O)O)CCCCC1.[NH-]CC1(C[NH-])CCCCC1.[Pt+2]
T/C [5]: 121 % of control
T/C [6]: 122 % of control
T/C [14]: 122 % of control

Cc1c2ccnc(-c3ccccc3)c2cc2c1[nH]c1ccccc12
T/C [1]: 115 % of control
T/C [2]: 104 % of control
T/C [3]: 94 % of control and 96 % of control

ClC1CC[N-]CC1.ClC1CC[N-]CC1.O=C(O)CC(=O)O.[Pt+2]
T/C [15]: 96 % of control
T/C [1]: 95 % of control
T/C [2]: 96 % of control
T/C [3]: 95 % of control
T/C [7]: 104 % of control

O=C(N/N=C/c1ccc(O)cc1O)c1cccnc1
T/C (dose: 25.0 mg/kg/injection, schedule: Q01DX009 (ip), vehicle: olive oil, sesame oil, peanut oil): 86 % of control

CCCCCCCCCCCCCCCCCCOCC(COP(=O)([O-])OCC[N+](C)(C)C)OC (stereo unspecified)
T/C [4]: 91 % of control
T/C [5]: 95 % of control
T/C [6]: 92 % of control
T/C [14]: 87 % of control

CC(C)=CCNc1ncnc2c1ncn2C1OC(CO)C(O)C1O (stereo unspecified)
T/C [13]: 102 % of control
T/C [5]: 101 % of control
T/C [15]: 103 % of control
T/C [6]: 96 % of control
T/C [1]: 87 % of control and 107 % of control
T/C [14]: 103 % of control
T/C [2]: 87 % of control and 98 % of control
T/C [8]: 93 % of control
T/C [3]: 97 % of control
T/C [9]: 115 % of control

CCCCCCCCCC(=O)CCC
T/C [11]: 100 % of control
T/C (dose: 200.0 mg/kg/injection, schedule: Q01DX009 (ip), vehicle: Klucel (hydroxypropylcellulose) (HPC)): 111 % of control
T/C [12]: 95 % of control

CCCCCCCCCCCCCCCCCC(=O)OCC(=O)OCC(=O)[C@]1(O)Cc2c(O)c3c(c(O)c2[C@@H](OC2CC(N)C(O)C(C)O2)C1)C(=O)c1c(OC)cccc1C3=O (stereo partly specified)
T/C (dose: 3.75 mg/kg/injection, schedule: Q01DX001 (ip), vehicle: water): 236 % of control
T/C (dose: 7.5 mg/kg/injection, schedule: Q01DX001 (ip), vehicle: water): 287 % of control and 289 % of control
T/C (dose: 15.0 mg/kg/injection, schedule: Q01DX001 (ip), vehicle: water): 289 % of control
T/C (dose: 30.0 mg/kg/injection, schedule: Q01DX001 (ip), vehicle: water): 154 % of control and 289 % of control (2×)
